Results as given in ChEMBL document CHEMBL1201862, “PubChem BioAssay data set” (2004).
Activity calls are given as the source filed them.

Key:
[1] = molecular target: T1, Endoribonuclease toxin MazF (Escherichia coli K-12, UniProt P0AE70); experiment: SAR analysis of small molecule activators of the MazEF TA System via a fluorescence-based single-stranded RNase assay counterscreen. [Related pubchem assays (depositor defined):AID504720, AID504743]; type: functional
T1 sequence (P0AE70 whole entry): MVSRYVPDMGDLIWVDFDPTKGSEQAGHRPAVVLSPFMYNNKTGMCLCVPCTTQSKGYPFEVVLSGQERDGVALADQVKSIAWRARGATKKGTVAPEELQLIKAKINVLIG

[2] = molecular target: T1, Endoribonuclease toxin MazF; experiment: MazF endoribonuclease activators, SAR follow-up, biochemical, fluorescence, single-stranded RNA substrate (AID 588603); type: functional
[3] = molecular target: T1, Endoribonuclease toxin MazF; experiment: MazF toxin RNase activators, dose response, biochemical, fluorescence, single-stranded RNA substrate, uHTS hits (AID 588481); type: functional
[4] = molecular target: T1, Endoribonuclease toxin MazF; experiment: fluorescent RNA oligo signal without MazF, dose response, counter-screen for MazEF activator project, biochemical, fluorescence, single-stranded RNase substrate (AID 588502); type: functional
MEF = experiment: SAR analysis of small molecule cytotoxicity of MazEF TA System activators in embryonic fibroblast (MEF) cells. [Related pubchem assays (depositor defined):AID504720, AID504743]; type: functional; conditions: Mus musculus
[5] = molecular target: Nuclear receptor subfamily 0 group B member 1 (Homo sapiens, UniProt P51843); experiment: Luminescence-based cell-based high throughput dose response assay for inhibitors of the orphan nuclear receptor subfamily 0, group B, member 1 (DAX1; NR0B1). [Related pubchem assays (depositor defined):AID504766, AID504790]; type: functional
Nuclear receptor subfamily 0 group B member 1, sequence (P51843 whole entry): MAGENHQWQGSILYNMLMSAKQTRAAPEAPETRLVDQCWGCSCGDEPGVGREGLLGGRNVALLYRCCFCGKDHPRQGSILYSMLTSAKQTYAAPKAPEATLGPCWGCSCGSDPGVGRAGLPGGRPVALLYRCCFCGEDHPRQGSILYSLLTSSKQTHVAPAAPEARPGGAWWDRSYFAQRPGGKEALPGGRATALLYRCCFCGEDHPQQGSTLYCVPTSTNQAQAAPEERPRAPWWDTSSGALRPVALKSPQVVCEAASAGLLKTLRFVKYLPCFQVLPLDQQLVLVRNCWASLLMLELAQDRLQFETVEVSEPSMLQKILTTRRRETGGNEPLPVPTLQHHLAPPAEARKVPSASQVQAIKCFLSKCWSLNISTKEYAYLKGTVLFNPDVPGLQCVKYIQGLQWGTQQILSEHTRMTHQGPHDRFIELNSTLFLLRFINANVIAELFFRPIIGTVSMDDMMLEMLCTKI

HEK293 [6] = experiment: cells; type: functional, cell-based; conditions: Homo sapiens
ORF 73 = molecular target: T2, ORF 73 (Human herpesvirus 8, UniProt O40947); experiment: inhibitors of C-LANA binding to LBS DNA, dose response, biochemical, fluorescence polarization, cherry-picked samples (AID 504725); design: species or system Human gammaherpesvirus 8;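 also: fluorescence polarization of a labeled DNA duplex reporting LANA DNA binding; potency is for inhibitors that block LANA binding to the DNA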
T2 sequence (O40947 whole entry): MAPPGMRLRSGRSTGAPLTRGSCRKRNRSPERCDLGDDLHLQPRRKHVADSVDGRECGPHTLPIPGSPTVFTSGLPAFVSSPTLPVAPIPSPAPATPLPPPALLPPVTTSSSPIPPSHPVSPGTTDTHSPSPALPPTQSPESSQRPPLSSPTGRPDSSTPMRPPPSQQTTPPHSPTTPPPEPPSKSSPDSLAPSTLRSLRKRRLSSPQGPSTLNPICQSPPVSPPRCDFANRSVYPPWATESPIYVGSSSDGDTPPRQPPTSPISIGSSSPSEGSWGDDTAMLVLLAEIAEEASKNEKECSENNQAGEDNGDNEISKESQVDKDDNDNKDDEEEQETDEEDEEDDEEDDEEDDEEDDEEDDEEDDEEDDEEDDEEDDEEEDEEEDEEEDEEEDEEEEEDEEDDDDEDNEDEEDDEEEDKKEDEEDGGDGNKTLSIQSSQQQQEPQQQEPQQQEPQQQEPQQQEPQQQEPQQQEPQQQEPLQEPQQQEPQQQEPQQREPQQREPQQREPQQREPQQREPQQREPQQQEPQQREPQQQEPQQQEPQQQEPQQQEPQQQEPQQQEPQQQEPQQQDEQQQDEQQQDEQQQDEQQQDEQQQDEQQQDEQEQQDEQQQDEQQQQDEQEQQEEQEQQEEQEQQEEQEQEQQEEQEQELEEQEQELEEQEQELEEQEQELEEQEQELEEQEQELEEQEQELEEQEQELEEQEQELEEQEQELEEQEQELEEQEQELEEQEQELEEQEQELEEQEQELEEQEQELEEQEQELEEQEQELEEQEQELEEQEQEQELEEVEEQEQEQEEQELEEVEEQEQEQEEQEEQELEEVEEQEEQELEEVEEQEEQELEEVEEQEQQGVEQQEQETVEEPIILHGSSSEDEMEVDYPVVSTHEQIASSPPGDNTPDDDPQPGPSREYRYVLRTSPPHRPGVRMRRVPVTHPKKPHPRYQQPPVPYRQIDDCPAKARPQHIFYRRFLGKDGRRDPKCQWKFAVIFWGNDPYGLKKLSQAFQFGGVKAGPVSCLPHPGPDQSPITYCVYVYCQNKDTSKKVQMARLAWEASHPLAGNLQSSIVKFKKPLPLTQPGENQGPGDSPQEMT

Insulin-degrading enzyme [7] = molecular target: T3, Insulin-degrading enzyme (Homo sapiens, UniProt P14735); experiment: activators of recombinant IDE enzyme, dose response, counter-screen for IDE activator project, biochemical, fluorescence polarization (AID 588681)
T3 sequence (P14735 whole entry): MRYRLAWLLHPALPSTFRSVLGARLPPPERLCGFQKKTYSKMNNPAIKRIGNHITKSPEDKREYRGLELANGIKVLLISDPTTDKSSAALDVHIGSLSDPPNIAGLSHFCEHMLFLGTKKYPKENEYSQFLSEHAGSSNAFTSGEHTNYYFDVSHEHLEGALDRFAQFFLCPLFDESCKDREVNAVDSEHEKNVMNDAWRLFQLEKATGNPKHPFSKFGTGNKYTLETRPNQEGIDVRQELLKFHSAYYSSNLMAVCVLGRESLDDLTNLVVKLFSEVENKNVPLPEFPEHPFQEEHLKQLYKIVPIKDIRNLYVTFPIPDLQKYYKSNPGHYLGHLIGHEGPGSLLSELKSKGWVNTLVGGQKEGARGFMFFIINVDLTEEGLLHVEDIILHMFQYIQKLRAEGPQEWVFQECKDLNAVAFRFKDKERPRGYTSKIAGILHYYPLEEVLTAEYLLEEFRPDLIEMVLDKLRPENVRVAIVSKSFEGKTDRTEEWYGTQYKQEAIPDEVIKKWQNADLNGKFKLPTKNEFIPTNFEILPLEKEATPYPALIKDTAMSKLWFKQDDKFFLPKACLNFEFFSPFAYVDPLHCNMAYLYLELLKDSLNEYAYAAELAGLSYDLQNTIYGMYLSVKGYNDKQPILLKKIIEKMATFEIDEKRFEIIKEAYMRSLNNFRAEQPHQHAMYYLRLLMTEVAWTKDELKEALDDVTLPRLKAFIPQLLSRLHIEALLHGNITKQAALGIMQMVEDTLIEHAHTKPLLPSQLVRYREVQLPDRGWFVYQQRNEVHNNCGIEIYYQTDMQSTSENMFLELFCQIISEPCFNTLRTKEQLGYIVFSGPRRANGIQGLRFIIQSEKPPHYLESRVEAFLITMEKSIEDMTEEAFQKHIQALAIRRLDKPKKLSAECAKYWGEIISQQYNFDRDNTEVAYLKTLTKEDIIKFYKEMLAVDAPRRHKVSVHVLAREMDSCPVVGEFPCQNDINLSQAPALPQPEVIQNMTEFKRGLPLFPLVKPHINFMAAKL

HEK293 [8] = experiment: HEK cell cytotoxicity by LDH release, dose response, cytotoxicity control for IDE activator project, fluorescence, HEK cells (AID 588440); type: functional, cell-based; conditions: Homo sapiens;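 also: cytotoxicity by LDH release measuring loss of membrane integrity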
Fibrinogen beta chain [9] = molecular target: T4, Fibrinogen beta chain (Homo sapiens, UniProt P02675); experiment: Fluorescence polarization-based biochemical high throughput dose response assay to identify inhibitors that disrupt the binding of a cyclic peptide (Tn6) to the fibrin proteolytic product D-Dimer and fragment E complex [DD(E )].
T4 sequence (P02675 whole entry, the tested form may be a part): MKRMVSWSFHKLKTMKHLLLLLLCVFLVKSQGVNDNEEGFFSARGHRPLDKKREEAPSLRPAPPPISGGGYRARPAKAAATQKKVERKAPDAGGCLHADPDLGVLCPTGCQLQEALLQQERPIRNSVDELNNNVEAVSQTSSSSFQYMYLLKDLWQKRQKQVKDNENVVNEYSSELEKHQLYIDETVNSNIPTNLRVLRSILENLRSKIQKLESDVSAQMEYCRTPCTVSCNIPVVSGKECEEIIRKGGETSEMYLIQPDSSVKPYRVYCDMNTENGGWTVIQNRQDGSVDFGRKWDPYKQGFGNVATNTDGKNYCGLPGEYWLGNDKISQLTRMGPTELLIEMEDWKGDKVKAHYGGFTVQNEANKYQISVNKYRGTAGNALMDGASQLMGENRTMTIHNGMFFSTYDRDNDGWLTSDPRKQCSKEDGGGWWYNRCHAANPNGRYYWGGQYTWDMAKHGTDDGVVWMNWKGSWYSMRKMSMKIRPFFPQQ

Troponin, cardiac muscle = Troponin, cardiac muscle (Homo sapiens, UniProt P19429+P45379+P63316); experiment: Fluorescence-based biochemical high throughput dose response assay for activators of the calcium sensitivity of cardiac Regulated Thin Filaments (RTF). [Related pubchem assays (depositor defined):AID493008, AID493018, AID504382, AID504383]; type: protein-complex assay
[10] = molecular target: UDP-galactopyranose mutase (Mycobacterium tuberculosis, UniProt P9WIQ1); experiment: Inhibitors of Mycobacterium tuberculosis UDP-galactopyranose mutase (UGM) enzyme Measured in Biochemical System Using Plate Reader - 2105-02_Inhibitor_Dose_CherryPick_Activity. [Related pubchem assays (depositor defined):AID504439]
UDP-galactopyranose mutase, sequence (P9WIQ1 whole entry, the tested form may be a part): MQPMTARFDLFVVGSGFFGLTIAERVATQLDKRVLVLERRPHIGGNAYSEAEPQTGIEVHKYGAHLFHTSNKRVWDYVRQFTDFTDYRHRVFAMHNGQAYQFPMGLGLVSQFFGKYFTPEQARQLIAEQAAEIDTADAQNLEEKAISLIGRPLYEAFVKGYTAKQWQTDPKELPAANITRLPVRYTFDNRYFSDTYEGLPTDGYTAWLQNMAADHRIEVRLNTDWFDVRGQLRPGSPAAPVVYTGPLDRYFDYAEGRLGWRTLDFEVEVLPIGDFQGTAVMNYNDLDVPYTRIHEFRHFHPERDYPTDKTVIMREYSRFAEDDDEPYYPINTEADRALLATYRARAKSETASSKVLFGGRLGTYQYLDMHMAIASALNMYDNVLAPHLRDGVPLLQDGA

Fibrinogen beta chain [11] = molecular target: T4, Fibrinogen beta chain; experiment: Fluorescence polarization-based biochemical high throughput dose response assay to identify inhibitors that disrupt the binding of a cyclic peptide (Tn7) to the fibrin proteolytic product D-Dimer and fragment E complex [DD(E )].
Insulin-degrading enzyme [12] = molecular target: T3, Insulin-degrading enzyme; experiment: activators of endogenous IDE in HEK cells, dose response, cell-based, fluorescence polarization (AID 588439); type: functional
HEK293 [13] = experiment: optical interference in Abeta FP readout, dose response, artefact control for IDE activator project, biochemical, fluorescence polarization (AID 588442); type: functional, cell-based; conditions: Homo sapiens
NIH3T3 = experiment: cytotoxicity in NIH-3T3 fibroblasts, dose response, cytotoxicity control for antifungal drug resistance project, cell-based, Alamar Blue, fluconazole, dry powder (AID 488809); type: functional; conditions: Mus musculus
Candida albicans = experiment: growth inhibition of resistant C. albicans, dose response, CaCi-8, fluconazole, Alamar Blue, dry powder (AID 488807); type: functional, organism-based
[14] = Fluorescence polarization-based biochemical high throughput dose response assay for activators of the Protein Kinase A-R2B (PKA-R2B) complex. [Related pubchem assays (depositor defined):AID504700, AID504704, AID504796, AID504797]
[15] = Fluorescence polarization-based biochemical high throughput dose response assay for activators of the Protein Kinase A-R1A (PKA-R1A) complex. [Related pubchem assays (depositor defined):AID504704, AID504707, AID504799, AID504800]
[16] = molecular target: Dual specificity protein phosphatase 3 (Homo sapiens, UniProt P51452); experiment: SAR VHR1 Fluorescent Assay for In Vitro dose response studies Set 3. [Related pubchem assays (depositor defined):AID1654, AID1661, AID1878]; type: functional
Dual specificity protein phosphatase 3, sequence (P51452 whole entry): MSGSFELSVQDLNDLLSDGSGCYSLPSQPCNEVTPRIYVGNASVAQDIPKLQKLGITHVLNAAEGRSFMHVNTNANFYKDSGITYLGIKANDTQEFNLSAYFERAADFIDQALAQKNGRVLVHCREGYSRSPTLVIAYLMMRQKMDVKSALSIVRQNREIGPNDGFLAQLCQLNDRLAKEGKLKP

[17] = tested on: Streptococcus sp. 'group A'; experiment: growth inhibition of control SK(-) GAS strain, dose response, counter-screen for streptokinase expression inhibitor project, luminescence, kanamycin, BacTiterGlo, confirmation (AID 1900); type: functional, organism-based
Phospholipase A2 = Phospholipase A2 (Homo sapiens, UniProt P04054); type: functional;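 also: confirmatory dose-response counterscreen on phospholipase A2, testing hits that came from an ultra-high-throughput screen for ATG4B inhibitors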
Phospholipase A2, sequence (P04054 whole entry): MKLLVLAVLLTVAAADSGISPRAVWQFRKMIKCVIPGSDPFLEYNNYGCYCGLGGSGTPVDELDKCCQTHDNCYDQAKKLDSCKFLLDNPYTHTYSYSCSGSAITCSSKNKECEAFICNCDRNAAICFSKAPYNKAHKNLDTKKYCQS

Streptokinase A = molecular target: T5, Streptokinase A (Streptococcus pyogenes serotype M1, UniProt P10520); experiment: S. pyogenes streptokinase expression inhibitors, potency, dose response, plasminogen activation absorbance, OD405 (AID 1914); type: functional, Streptococcus pyogenes M1 GAS;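 also: secreted streptokinase activity via plasminogen activation per viability signal from cell pellet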
T5 sequence (P10520 whole entry): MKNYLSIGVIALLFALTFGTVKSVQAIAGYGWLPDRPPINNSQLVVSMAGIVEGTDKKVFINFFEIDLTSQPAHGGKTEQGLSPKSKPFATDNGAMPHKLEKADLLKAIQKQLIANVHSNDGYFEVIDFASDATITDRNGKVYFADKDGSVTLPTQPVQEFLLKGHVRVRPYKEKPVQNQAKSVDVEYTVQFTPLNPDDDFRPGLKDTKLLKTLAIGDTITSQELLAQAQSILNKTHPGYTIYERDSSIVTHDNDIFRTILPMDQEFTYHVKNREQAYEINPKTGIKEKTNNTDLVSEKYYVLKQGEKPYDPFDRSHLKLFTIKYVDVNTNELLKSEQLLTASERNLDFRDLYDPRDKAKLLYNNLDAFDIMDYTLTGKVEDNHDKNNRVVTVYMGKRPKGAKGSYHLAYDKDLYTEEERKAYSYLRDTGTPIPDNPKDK

Cysteine protease ATG4B = Cysteine protease ATG4B (Homo sapiens, UniProt Q9Y4P1); type: functional;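 also: Fluorescence-based dose-response confirmation assay measuring inhibition of ATG4B activity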
Cysteine protease ATG4B, sequence (Q9Y4P1 whole entry): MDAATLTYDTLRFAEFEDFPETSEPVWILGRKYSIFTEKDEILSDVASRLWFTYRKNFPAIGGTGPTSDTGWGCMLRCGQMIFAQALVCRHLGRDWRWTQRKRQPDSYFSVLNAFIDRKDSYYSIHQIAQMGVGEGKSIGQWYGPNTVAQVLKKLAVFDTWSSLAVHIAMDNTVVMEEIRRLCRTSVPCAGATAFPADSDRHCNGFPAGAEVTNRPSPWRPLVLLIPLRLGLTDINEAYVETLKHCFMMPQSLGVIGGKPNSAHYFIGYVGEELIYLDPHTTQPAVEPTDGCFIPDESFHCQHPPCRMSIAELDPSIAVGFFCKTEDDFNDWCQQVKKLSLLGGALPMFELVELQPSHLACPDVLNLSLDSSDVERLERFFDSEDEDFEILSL

Streptococcus = experiment: Group A Streptococcus viability loss, dose response, counter-screen for streptokinase expression inhibitor project, luminescence, BacTiterGlo (AID 1915); type: functional, organism-based;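 also: potency for reduction of bacterial viability or growth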

Question: Which EC50 [1] does the source give for `CCN1C(C)=C(C)S/C1=C1\SC(=S)N(C2CCCCC2)C1=O` here?
Answer: > 99 µM (inactive)

Question: And the EC50 [2]?
Answer: 22.4 µM (inactive)

Question: And the EC50 [3]?
Answer: 29.1 µM (inactive)

Question: And the EC50 [4]?
Answer: > 99 µM (inactive)

Question: And the CC50 (MEF)?
Answer: > 99 µM (inactive)

Question: Which results are given for `COc1ccc(N2C(=O)C3C(c4ccc(OC)cc4O)NC(Cc4ccccc4)(C(=O)O)C3C2=O)cc1` (stereo unspecified)?
Answer: IC50 [5]: > 67.5 µM (inactive); IC50 (HEK293 [6]): > 67.5 µM (inactive)

Question: For `Oc1ccc2ccc3cccc[n+]3c2c1`, which AC50 (ORF 73) is on record?
Answer: 1.61 µM (active)

Question: What about the EC50 (Insulin-degrading enzyme [7]) of the same compound?
Answer: > 54.7 µM (inactive)

Question: What about the IC50 (HEK293 [8]) of the same compound?
Answer: > 89.2 µM (inactive)

Question: And the IC50 (Fibrinogen beta chain [9])?
Answer: > 83.3 µM (inactive)

Question: What about the EC50 (Troponin, cardiac muscle) of the same compound?
Answer: 1.21 µM (active)

Question: And the AC50 [10]?
Answer: 3.84 µM (active)

Question: And the IC50 (Fibrinogen beta chain [11])?
Answer: > 9.26 µM (active)

Question: What about the EC50 (Insulin-degrading enzyme [12]) of the same compound?
Answer: > 54.7 µM (inactive)

Question: What about the EC50 (HEK293 [13]) of the same compound?
Answer: > 54.7 µM (inactive)

Question: Which AC50 (NIH3T3) does the source give for `CC1CCN(C(=O)Cn2c3ccc(F)cc3c3nc4n(c(=O)c32)CCCS4)CC1` here?
Answer: 41.8 µM (active)

Question: And the AC50 (Candida albicans)?
Answer: 2.96 µM (active)

Question: What does the source list for `Nc1nc(O)c2nc(Br)n([C@@H]3O[C@@H]4COP(=O)(O)O[C@H]4[C@H]3O)c2n1`?
Answer: EC50 [14]: 2.15 µM (active); EC50 [15]: 7.83 µM (active)

Question: With `COc1ccc(C(=O)Nc2cc(C)nn2-c2nc3ccccc3s2)cc1` as the compound, how does the IC50 [16] read?
Answer: 36.3 µM (active)

Question: Which EC50 [17] does the source give for `COc1cc(/C=C2\S/C(=N\c3ccccc3)N(CCc3c[nH]c4ccccc34)C2=O)ccc1OC(C)C(=O)O` (stereo unspecified) here?
Answer: 0.943 µM (active)

Question: And the IC50 (Phospholipase A2)?
Answer: 5.47 µM (active)

Question: What about the EC50 (Streptokinase A) of the same compound?
Answer: 4.12 µM (active)

Question: And the IC50 (Cysteine protease ATG4B)?
Answer: 8.13 µM (active)

Question: What about the EC50 (Streptococcus) of the same compound?
Answer: 11.5 µM (active)
